Counter-ions that a name gives are not always drawn. Like-named read-outs stand apart in the source and are kept apart here.
Columns and labels:
NPFF2 = target: T1, NPFF2 (Homo sapiens, UniProt Q9Y5X5); assay: Receptor Selection and Amplification Technology (R-SAT) functional assay, NPFF2; assay type: cell-based; conditions: Table 1; for Emax: Efficacy is relative to endogenous ligand, read-out: NPFF2 % Efficacy; for EC50 / NPFF2 pEC50: NA = No activity detectable at the highest dose tested (20 μM)
T1 construct: expressed in transfected cells; host or cells: NIH3T3
T1 sequence (Q9Y5X5 103-522): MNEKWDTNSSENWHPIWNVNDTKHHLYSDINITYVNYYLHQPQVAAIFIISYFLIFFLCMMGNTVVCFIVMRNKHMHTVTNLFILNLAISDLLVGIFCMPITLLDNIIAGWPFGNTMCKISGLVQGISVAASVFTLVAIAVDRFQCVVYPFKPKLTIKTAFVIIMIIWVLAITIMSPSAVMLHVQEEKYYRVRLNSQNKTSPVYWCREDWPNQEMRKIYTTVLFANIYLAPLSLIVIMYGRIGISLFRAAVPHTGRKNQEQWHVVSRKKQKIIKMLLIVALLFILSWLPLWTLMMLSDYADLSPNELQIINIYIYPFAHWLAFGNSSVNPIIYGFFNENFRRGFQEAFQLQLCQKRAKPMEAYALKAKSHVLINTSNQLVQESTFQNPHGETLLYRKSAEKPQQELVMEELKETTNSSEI
Description: (§1) Briefly, NIH3T3 cells were grown in 96 well tissue culture plates to 70-80% confluence. Cells were transfected for 16-20 h h with plasmid DNAs using Polyfect (Qiagen Inc.) as per manufacturer's protocols. R-SAT's were generally performed with 40 ng/well of receptor and 20 ng/well of β-galactosidase plasmid DNA. All receptor and G-protein constructs used were in the pSI-derived mammalian expression vector (Promega Inc) as described previously. […] For large-scale transfections, cells were transfected for 16-20 h, then trypsinized and frozen in DMSO. Frozen cells were later thawed, plated at ˜20,000 cells per well of a 96 half-area well plate that contained drug. With both methods, cells were then grown in a humidified atmosphere with 5% ambient CO2 for five days. Media was then removed from the plates and marker gene activity was measured by the addition of the β-galactosidase substrate o-nitrophenyl β-D-galactopyranoside (ONPG, in PBS with 0.5% NP-40). The resulting colorimetric reaction was measured in a spectrophotometric plate reader (Titertek Inc.) at 420 nm. All data were analyzed using the computer program XLFit (IDBSm).
(§2) R-SAT assay was conducted as set forth in […]

NPFF1 = NPFF1 (Homo sapiens, UniProt Q9GZQ6); assay: Receptor Selection and Amplification Technology (R-SAT) functional assay, NPFF1; assay type: cell-based; parameters: expressed in transfected cells; host or cells: NIH3T3; conditions: R-SAT, Table 1; for Emax: Efficacy is relative to endogenous ligand, read-out: NPFF1 % Efficacy; for EC50: NA = No activity detectable at the highest dose tested (20 μM), read-out: NPFF1 pEC50 (converted)
Sequence of NPFF1 (Q9GZQ6 whole entry, species assumed): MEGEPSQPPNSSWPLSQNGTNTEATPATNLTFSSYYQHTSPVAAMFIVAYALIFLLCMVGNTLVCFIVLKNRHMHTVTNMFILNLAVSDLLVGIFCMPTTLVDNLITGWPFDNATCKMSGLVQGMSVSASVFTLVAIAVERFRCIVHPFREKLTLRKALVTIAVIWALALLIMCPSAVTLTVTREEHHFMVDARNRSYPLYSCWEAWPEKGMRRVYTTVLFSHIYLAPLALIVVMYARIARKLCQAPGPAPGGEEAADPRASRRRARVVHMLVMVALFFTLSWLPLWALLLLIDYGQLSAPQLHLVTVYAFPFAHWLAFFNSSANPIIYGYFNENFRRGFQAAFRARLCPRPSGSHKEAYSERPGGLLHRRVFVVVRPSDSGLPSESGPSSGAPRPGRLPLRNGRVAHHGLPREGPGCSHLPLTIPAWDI
Description: as §1, §2

[1] = R-SAT, read-out: NPFF2 pEC50 (converted)

Emax (NPFF2; R-SAT) | EC50 (NPFF2; [1]) | Emax (NPFF1) | EC50 (NPFF1) | NPFF2 pEC50 (NPFF2; R-SAT) | SMILES | EC50 (NPFF2; NPFF2 pEC50, R-SAT)
105% | 2510 nM | 26% | 3980 nM |  | COc1ccc(C=NNC(=N)N)c(C)c1C [Compound 2034, 1-(4-Methoxy-2,3-dimethylbenzylideneamino)guanidine Hydrochloride] | 
53% | 3160 nM | 13% |  |  | N=C(N)NN=Cc1ccc(Br)cc1F [Compound 2018, 1-(4-Bromo-2-fluorobenzylideneamino)guanidine Hydrochloride] | 
84% | 6310 nM | 24% | 7940 nM |  | COc1ccc2ccccc2c1C=NNC(=N)N [Compound 3007, 1-[1-(2-Methoxy-naphthalen-1-yl)methylideneamino]guanidine Hydrochloride] | 
51% | 794 nM |  |  |  | N=C(N)NN=Cc1c2ccccc2cc2ccccc12 [Compound 2006, 1-[(Anthracen-9-yl)methylideneamino]guanidine Hydrochloride] | 
55% | 1260 nM | 13% |  |  | CCCCCc1ccc(C=NNC(=N)N)cc1 [Compound 3022, 1-(4-n-pentylbenzylideneamino)guanidine Hydrochloride] | 
54% | 5010 nM | 13% |  |  | Cc1cccc(C=NNC(=N)N)c1 [Compound 3018, 1-(3-Methylbenzylideneamino)guanidine Hydrochloride] | 
65% | 1260 nM | 72% | 1000 nM |  | CCN(CC)c1ccc(C=NNC(=N)N)cc1 [Compound 3038, 1-(4-Diethylaminobenzylideneamino)guanidine Hydrochloride] | 
49% | 10000 nM | 15% |  |  | COc1cccc(C=NNC(=N)N)c1OC [Compound 4004, 1-(2,3-Dimethoxybenzylideneamino)guanidine Hydrochloride] | 
79% | 5010 nM | 31% | 10000 nM |  | COc1cc(Cl)cc(C=NNC(=N)N)c1OC [Compound 2059, 1-(5-Chloro-2,3-dimethoxybenzylideneamino)guanidine Hydrochloride] | 
64% | 2000 nM | 37% | 7940 nM |  | COc1cc(OC)c(C=NNC(=N)N)cc1Br [Compound 4015, 1-(5-Bromo-2,4-dimethoxybenzylideneamino)guanidine Hydrochloride] | 
32% | 5010 nM | -1% |  |  | COc1ccc(OC)c(C(C)=NNC(=N)N)c1 (mixture of isomers) [Compound 3029, 1-[1-(2,5-Dimethoxyphenyl)ethylideneamino]guanidine Hydrochloride] | 
59% | 3160 nM | 39% | 794 nM |  | CCN(CC)c1ccc(C=NNC(=N)N)c(O)c1 [Compound 3037, 1-(4-Diethylamino-2-hydroxybenzylideneamino)guanidine Hydrochloride] | 
39% | 2510 nM |  |  |  | N=C(N)NN=Cc1cccc(C(F)(F)F)c1 [Compound 2002, 1-[3-(Trifluoromethyl)benzylideneamino]guanidine Hydrochloride] | 
48% | 3980 nM | 26% | 3980 nM |  | N=C(N)NN=Cc1ccc(C(F)(F)F)cc1F [Compound 2060, 1-[2-Fluoro-4-(trifluoromethyl)benzylideneamino]guanidine Hydrochloride] | 
73% | 501 nM | 6% |  |  | CCC(=NNC(=N)N)c1ccc(Cl)c(Cl)c1 [Compound 2056, 1-(3,4-Dichlorophenyl)-1-(propylideneaminoguanidine) Hydrochloride] | 
77% | 2510 nM | 19% | 10000 nM |  | COc1ccc(C(F)(F)F)cc1C=NNC(=N)N [Compound 2074, 1-[2-Methoxy-5-(trifluoromethyl)benzylideneamino]guanidine Hydrochloride] | 
70% | 2000 nM | 48% | 1580 nM |  | CN(CCC#N)c1ccc(C=NNC(=N)N)cc1 [Compound 3040, 1-{4-[Methyl-(2-cyanoethyl)amino]benzylideneamino}guanidine Hydrochloride] | 
53% | 2000 nM | 78% | 3980 nM |  | CCCOc1ccc(C=NNC(=N)N)cc1 [Compound 4006, 1-(4-n-Propoxybenzylideneamino)guanidine Hydrochloride] | 
63% | 1260 nM | 5% |  |  | CC(=NNC(=N)N)c1cccc(C(F)(F)F)c1 [Compound 3027, 1-{1-[3-(Trifluoromethyl)phenyl]ethylideneamino}guanidine Hydrochloride] | 

Emax (NPFF2; R-SAT) | EC50 (NPFF2; [1]) | Emax (NPFF1) | EC50 (NPFF1) | NPFF2 pEC50 (NPFF2; R-SAT) | SMILES | EC50 (NPFF2; NPFF2 pEC50, R-SAT)
70% | 1260 nM | 26% | 1000 nM |  | N=C(N)NN=Cc1cc2c(cc1Br)OCO2 [Compound 3015, 1-[(6-Bromobenzo[1,3]dioxol-5-yl)methylideneamino]guanidine Hydrochloride] | 
50% | 2000 nM | 11% |  |  | N=C(N)NN=Cc1ccc(F)c2ccccc12 [Compound 2072, 1-[(4-Fluoro-1-naphthalen-1-yl)methylideneamino]guanidine Hydrochloride] | 
80% | 6310 nM | 17% |  |  | CC(=NNC(=N)N)c1cccc(C)c1 [Compound 3017, 1-[1-(3-Methylphenyl)ethylideneamino]guanidine Hydrochloride] | 
16% |  | 1% |  |  | N=C(N)NN=Cc1ccc(O)c(Cl)c1 [Compound 2031, 1-(3-Chloro-4-hydroxybenzylideneamino)guanidine Hydrochloride] | 
80% | 2510 nM | 20% | 3980 nM |  | N=C(N)NN=Cc1ccc(C(F)(F)F)cc1 [Compound 4002, 1-[(4-Trifluoromethyl)benzylideneamino]guanidine Hydrochloride] | 
61% | 1000 nM | 13% |  |  | N=C(N)NN=Cc1ccc(F)c(C(F)(F)F)c1 [Compound 2068, 1-[4-Fluoro-3-(trifluoromethyl)benzylideneamino]guanidine Hydrochloride] | 
31% | 501 nM | 24% | 1260 nM |  | N=C(N)NN=Cc1ccc(Oc2ccccc2)cc1 [Compound 2020, 1-(4-Phenoxybenzylideneamino)guanidine Hydrochloride] | 
49% | 1580 nM |  |  |  | CC(=NNC(=N)N)c1cccc(Br)c1 [Compound 2003, 1-[1-(3-Bromophenyl)ethylideneamino]guanidine Hydrochloride] | 
47% | 2000 nM |  |  |  | COc1ccc(C=NNC(=N)N)cc1Cl [Compound 2043, 1-(3-Chloro-4-methoxybenzylideneamino)guanidine Hydrochloride] | 
51% |  |  |  | 5.2 | CN(C)c1ccc(/C=N/NC(=N)N)cc1[N+](=O)[O-] [Compound 1012] | 
102% |  |  |  |  | N=C(N)N/N=C/c1ccc(Br)cc1 [Compound 1007] | 
70% |  |  |  | 5.5 | COc1ccc(/C=N/NC(=N)N)cc1I [Compound 1005] | 
49% |  |  |  |  | CCCCC/C(=N/NC(=N)N)c1cccc(C)c1 [Compound 1001] | 
38% | 10000 nM |  |  |  | N=C(N)NN=Cc1cc(F)ccc1[N+](=O)[O-] [Compound 2004, 1-(5-Fluoro-2-nitrobenzylideneamino)guanidine Hydrochloride] | 
53% |  |  |  |  | C/C(=N\NC(=N)N)c1cc(Br)ccc1Br [Compound 1006] | 
97% |  |  |  | 5.0 | COc1ccc(/C=N/NC(=N)N)cc1 [Compound 1014] | 
41% |  |  |  | 6.2 | CCCCC/C(=N\NC(=N)N)c1ccc(C)cc1 [Compound 1002] | 
60% | 794 nM |  |  |  | C=CCOc1ccc(C=NNC(=N)N)cc1Cl [Compound 2042, 1-(4-Allyloxy-3-chlorobenzylideneamino)guanidine Hydrochloride] | 
106% |  |  |  |  | CCCC/C(=N\NC(=N)N)c1ccc(O)cc1 [Compound 1004] | 

SMILES | Emax (NPFF2; R-SAT) | EC50 (NPFF2; [1]) | Emax (NPFF1) | EC50 (NPFF1) | NPFF2 pEC50 (NPFF2; R-SAT) | EC50 (NPFF2; NPFF2 pEC50, R-SAT)
N=C(N)NN=Cc1ccc2c(c1)Cc1ccccc1-2 [Compound 2028, Hydrochloride] | 68% |  | 37% | 1580 nM |  | 1260 nM
C/C(=N\NC(=N)N)c1ccccc1 [Compound 1010] | 51% |  |  |  | 5.2 | 
N#CCCCCOc1ccc(C=NNC(=N)N)cc1Cl [Compound 2044, 1-[3-Chloro-4-(4-cyanobutoxy)benzylideneamino]guanidine Hydrochloride] | 45% | 3980 nM |  |  |  | 

Reference: patent US20050136444A1 (priority 2003, published 2005)
